Experimental data: the kinase profiling compilation of Christmann-Franck et al. (2016)

Key:
Experiment in all cases: radiometric filter-binding kinase assay, Kinase HotSpot
Details in all cases: compound 0.5 µM; ATP 10 µM
[1] = biological target: AKT1 (human) (UniProt P31749)
[2] = biological target: CAMK2B (human) (UniProt Q13554)
[3] = biological target: EPHB1 (human) (UniProt P54762)
[4] = biological target: INSR (human) (UniProt P06213)
[5] = biological target: RPS6KA4 KD2 (human) (UniProt O75676)
[6] = biological target: CAMK1 (human) (UniProt Q14012)
[7] = biological target: CAMK1D (human) (UniProt Q8IU85)
[8] = biological target: CAMK2A (human) (UniProt Q9UQM7)
Chain of CAMK2A (human) (Q9UQM7 whole entry, looked up): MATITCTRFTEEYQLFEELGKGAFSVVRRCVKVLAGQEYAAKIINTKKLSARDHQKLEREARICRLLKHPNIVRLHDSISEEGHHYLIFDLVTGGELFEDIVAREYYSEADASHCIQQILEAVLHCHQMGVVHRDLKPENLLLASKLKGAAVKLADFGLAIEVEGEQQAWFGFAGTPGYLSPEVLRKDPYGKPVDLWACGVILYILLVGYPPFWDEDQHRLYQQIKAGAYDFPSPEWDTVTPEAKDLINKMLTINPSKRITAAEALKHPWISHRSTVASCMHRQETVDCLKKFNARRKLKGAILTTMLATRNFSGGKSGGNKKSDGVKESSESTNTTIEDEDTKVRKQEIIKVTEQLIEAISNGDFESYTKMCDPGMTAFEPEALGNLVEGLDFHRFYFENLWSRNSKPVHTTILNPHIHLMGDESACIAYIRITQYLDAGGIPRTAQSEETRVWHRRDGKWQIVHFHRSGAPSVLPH

[9] = biological target: CDC42BPA (human) (UniProt Q5VT25)
[10] = biological target: CDK1 CCNB1 (human) (UniProt P06493+P14635)
[11] = biological target: CDK2 CCNA2 (human) (UniProt P24941+P20248)
[12] = biological target: CSNK1E (human) (UniProt P49674)
[13] = biological target: CSNK1G2 (human) (UniProt P78368)
[14] = biological target: CSNK2A1 (human) (UniProt P68400)
[15] = biological target: EPHA5 (human) (UniProt P54756)
[16] = biological target: EPHB4 (human) (UniProt P54760)
[17] = biological target: FES (human) (UniProt P07332)
[18] = biological target: FGFR1 (human) (UniProt P11362)
[19] = biological target: FGFR4 (human) (UniProt P22455)
[20] = biological target: GRK5 (human) (UniProt P34947)
Chain of GRK5 (human) (P34947 whole entry, looked up): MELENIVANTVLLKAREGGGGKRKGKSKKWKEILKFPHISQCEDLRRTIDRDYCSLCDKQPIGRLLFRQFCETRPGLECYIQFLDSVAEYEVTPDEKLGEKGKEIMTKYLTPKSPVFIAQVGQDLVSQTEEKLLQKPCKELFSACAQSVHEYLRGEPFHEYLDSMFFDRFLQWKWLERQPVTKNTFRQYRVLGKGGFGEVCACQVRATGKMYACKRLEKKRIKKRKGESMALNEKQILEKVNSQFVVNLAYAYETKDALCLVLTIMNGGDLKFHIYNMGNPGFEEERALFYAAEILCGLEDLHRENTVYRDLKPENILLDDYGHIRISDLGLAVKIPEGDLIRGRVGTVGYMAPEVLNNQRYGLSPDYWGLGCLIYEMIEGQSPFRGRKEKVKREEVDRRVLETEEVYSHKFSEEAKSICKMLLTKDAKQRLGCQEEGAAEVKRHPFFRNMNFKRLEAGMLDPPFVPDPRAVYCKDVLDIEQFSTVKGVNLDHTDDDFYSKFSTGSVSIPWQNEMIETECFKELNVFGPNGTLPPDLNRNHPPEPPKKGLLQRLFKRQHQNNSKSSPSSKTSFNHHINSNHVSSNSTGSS

[21] = biological target: INSRR (human) (UniProt P14616)
[22] = biological target: MAP3K10 (human) (UniProt Q02779)
[23] = biological target: MAP3K8 (human) (UniProt P41279)
[24] = biological target: MAPK12 (human) (UniProt P53778)
[25] = biological target: MAPK8 (human) (UniProt P45983)
[26] = biological target: MAPKAPK3 (human) (UniProt Q16644)
[27] = biological target: MATK (human) (UniProt P42679)
[28] = biological target: PAK2 (human) (UniProt Q13177)
[29] = biological target: PIM3 (human) (UniProt Q86V86)
[30] = biological target: PKN1 (human) (UniProt Q16512)
[31] = biological target: PLK2 (human) (UniProt Q9NYY3)
Chain of PLK2 (human) (Q9NYY3 whole entry, looked up): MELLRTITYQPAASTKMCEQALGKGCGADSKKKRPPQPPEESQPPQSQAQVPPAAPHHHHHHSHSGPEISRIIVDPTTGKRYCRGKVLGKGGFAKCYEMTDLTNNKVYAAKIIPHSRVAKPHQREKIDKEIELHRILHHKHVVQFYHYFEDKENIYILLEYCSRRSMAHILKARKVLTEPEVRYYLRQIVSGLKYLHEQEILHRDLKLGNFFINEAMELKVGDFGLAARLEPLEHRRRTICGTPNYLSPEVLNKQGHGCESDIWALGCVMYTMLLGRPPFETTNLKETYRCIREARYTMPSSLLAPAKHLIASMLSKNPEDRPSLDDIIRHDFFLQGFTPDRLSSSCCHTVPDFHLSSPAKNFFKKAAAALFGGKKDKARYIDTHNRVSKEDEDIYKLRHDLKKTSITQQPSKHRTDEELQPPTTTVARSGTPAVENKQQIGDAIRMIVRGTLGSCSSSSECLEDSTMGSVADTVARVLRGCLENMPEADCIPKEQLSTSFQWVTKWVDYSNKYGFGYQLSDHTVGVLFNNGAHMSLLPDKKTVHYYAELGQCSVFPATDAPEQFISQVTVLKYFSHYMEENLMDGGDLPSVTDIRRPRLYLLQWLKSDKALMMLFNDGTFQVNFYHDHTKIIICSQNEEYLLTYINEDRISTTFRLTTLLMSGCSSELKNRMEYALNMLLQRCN

[32] = biological target: PRKCG (human) (UniProt P05129)
[33] = biological target: SRPK3 (human) (UniProt Q9UPE1)
[34] = biological target: STK11 (human) (UniProt Q15831)
[35] = biological target: TAOK1 (human) (UniProt Q7L7X3)
Chain of TAOK1 (human) (Q7L7X3 whole entry, looked up): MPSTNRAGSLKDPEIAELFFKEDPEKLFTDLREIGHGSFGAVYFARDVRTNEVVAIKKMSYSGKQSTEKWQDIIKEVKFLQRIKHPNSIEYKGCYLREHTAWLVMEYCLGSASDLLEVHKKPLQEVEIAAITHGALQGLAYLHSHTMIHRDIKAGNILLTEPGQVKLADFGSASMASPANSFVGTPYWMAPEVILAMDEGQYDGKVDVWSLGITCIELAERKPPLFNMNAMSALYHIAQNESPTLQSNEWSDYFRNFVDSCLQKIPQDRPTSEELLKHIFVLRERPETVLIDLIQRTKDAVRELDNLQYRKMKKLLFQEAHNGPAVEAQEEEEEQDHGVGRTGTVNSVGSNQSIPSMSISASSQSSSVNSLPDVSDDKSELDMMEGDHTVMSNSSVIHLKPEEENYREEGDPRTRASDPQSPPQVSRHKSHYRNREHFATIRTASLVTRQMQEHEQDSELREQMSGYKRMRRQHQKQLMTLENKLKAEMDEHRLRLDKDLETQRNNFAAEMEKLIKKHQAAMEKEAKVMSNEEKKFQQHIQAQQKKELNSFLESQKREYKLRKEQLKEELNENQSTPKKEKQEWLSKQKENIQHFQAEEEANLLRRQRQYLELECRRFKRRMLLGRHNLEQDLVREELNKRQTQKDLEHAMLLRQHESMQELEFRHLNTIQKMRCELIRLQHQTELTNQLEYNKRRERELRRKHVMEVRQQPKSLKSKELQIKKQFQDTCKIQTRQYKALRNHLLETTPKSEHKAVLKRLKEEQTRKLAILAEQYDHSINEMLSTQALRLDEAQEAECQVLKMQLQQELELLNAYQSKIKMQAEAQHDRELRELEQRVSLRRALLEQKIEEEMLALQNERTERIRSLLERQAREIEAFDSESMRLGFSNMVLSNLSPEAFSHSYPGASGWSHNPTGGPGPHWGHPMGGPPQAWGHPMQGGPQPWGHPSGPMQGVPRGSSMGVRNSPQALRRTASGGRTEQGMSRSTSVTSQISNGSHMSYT

[36] = biological target: TAOK3 (human) (UniProt Q9H2K8)
[37] = biological target: TNK2 (human) (UniProt Q07912)
Chain of TNK2 (human) (Q07912 whole entry, looked up): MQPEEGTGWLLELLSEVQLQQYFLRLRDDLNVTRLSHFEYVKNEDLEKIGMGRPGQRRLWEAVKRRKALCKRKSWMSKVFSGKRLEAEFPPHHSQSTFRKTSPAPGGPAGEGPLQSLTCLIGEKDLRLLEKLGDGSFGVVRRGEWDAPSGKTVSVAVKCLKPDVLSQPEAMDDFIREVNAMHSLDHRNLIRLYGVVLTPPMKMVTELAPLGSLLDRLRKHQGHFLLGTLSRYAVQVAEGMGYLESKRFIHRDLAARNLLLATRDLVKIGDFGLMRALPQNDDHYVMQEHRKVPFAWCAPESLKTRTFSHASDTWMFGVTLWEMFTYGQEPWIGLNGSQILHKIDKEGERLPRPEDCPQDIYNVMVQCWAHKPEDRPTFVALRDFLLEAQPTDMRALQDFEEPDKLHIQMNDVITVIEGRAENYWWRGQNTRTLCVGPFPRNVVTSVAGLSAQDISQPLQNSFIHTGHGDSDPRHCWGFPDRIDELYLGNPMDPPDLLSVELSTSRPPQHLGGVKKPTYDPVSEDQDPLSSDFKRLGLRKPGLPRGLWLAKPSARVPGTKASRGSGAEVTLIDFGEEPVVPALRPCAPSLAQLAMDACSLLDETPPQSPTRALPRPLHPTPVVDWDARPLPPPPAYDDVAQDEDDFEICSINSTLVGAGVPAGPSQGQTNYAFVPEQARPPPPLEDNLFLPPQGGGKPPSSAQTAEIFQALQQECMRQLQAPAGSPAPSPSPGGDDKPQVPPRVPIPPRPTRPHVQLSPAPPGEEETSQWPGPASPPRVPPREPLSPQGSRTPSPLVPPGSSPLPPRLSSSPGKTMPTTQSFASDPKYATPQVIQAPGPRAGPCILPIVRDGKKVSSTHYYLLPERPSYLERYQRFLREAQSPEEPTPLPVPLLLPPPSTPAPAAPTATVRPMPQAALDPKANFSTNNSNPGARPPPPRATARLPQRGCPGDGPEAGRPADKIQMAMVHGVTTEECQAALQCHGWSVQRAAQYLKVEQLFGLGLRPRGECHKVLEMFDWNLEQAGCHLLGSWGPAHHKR

[38] = biological target: TYK2 JH1 catalytic (human) (UniProt P29597)
[39] = biological target: WNK3 (human) (UniProt Q9BYP7)
[40] = biological target: ZAP70 (human) (UniProt P43403)
[41] = biological target: EPHA7 (human) (UniProt Q15375)
[42] = biological target: IGF1R (human) (UniProt P08069)

Chain of EPHB1 (human) (P54762 whole entry, looked up): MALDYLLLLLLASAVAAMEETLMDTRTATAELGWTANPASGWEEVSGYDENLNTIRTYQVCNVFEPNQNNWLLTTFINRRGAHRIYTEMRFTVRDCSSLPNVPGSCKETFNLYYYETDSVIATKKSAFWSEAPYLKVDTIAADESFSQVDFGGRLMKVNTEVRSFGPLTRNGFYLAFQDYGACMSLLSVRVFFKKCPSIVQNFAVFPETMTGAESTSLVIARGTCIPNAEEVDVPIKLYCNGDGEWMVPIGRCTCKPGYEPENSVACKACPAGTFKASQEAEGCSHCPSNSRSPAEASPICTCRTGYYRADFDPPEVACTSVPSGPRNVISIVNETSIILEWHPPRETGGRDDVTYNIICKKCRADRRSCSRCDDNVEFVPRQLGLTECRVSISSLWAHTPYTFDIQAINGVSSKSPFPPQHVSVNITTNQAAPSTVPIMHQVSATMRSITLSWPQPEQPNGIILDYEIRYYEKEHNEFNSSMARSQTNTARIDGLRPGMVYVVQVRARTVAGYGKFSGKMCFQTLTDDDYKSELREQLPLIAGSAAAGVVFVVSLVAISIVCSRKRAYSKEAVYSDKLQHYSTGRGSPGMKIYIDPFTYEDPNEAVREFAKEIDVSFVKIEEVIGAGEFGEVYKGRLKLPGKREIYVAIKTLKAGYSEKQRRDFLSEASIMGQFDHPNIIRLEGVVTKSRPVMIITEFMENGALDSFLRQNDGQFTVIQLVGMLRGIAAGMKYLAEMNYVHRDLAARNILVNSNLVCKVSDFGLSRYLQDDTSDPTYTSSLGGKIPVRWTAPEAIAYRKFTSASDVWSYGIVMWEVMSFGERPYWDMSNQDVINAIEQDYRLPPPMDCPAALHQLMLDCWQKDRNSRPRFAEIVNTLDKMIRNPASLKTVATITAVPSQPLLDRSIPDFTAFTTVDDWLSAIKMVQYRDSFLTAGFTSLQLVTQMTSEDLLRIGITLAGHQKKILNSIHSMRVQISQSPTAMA

CN[C@@H]1C[C@H]2O[C@@](C)([C@@H]1OC)n1c3ccccc3c3c4c(c5c6ccccc6n2c5c31)C(=O)NC4
residual activity [1]: 7.49%
residual activity [2]: 1.64%
residual activity [3]: 12%
residual activity [4]: 3.14%
residual activity [5]: 6.74%

N#Cc1c(NC(=O)c2cccc3ccccc23)sc2c1CCCC2
residual activity [1]: 101%
residual activity [6]: 108%
residual activity [7]: 120%
residual activity [8]: 104%
residual activity [2]: 101%
residual activity [9]: 103%
residual activity [10]: 111%
residual activity [11]: 100%
residual activity [12]: 102%
residual activity [13]: 103%
residual activity [14]: 101%
residual activity [15]: 99.6%
residual activity [3]: 95.9%
residual activity [16]: 99.5%
residual activity [17]: 103%
residual activity [18]: 105%
residual activity [19]: 109%
residual activity [20]: 98.2%
residual activity [4]: 98.2%
residual activity [21]: 94.3%
residual activity [22]: 85.4%
residual activity [23]: 99.8%
residual activity [24]: 95.6%
residual activity [25]: 87.3%
residual activity [26]: 102%
residual activity [27]: 92.7%
residual activity [28]: 103%
residual activity [29]: 95.3%
residual activity [30]: 108%
residual activity [31]: 101%
residual activity [32]: 95.4%
residual activity [5]: 111%
residual activity [33]: 95.7%
residual activity [34]: 96.1%
residual activity [35]: 106%
residual activity [36]: 90.2%
residual activity [37]: 95.4%
residual activity [38]: 100%
residual activity [39]: 99.2%
residual activity [40]: 95%

O=S(=O)(NCCNC/C=C/c1ccc(Br)cc1)c1cccc2cnccc12
residual activity [1]: 41.6%
residual activity [6]: 107%
residual activity [7]: 85.5%
residual activity [8]: 102%
residual activity [2]: 93.3%
residual activity [9]: 97.5%
residual activity [10]: 93.3%
residual activity [11]: 105%
residual activity [12]: 107%
residual activity [13]: 86.8%
residual activity [14]: 97.8%
residual activity [15]: 96.9%
residual activity [41]: 109%
residual activity [3]: 106%
residual activity [16]: 108%
residual activity [17]: 115%
residual activity [18]: 87.6%
residual activity [19]: 85.3%
residual activity [20]: 127%
residual activity [42]: 104%
residual activity [4]: 94.3%
residual activity [21]: 103%
residual activity [22]: 85.5%
residual activity [23]: 99.4%
residual activity [25]: 92.7%
residual activity [26]: 97.8%
residual activity [27]: 96.1%
residual activity [28]: 78.6%
residual activity [29]: 98.3%
residual activity [30]: 14.3%
residual activity [32]: 83.8%
residual activity [5]: 38.8%
residual activity [33]: 98%
residual activity [34]: 102%
residual activity [35]: 101%
residual activity [36]: 95.4%
residual activity [37]: 88.3%
residual activity [38]: 103%
residual activity [39]: 93.1%
residual activity [40]: 97.9%

N#CCCc1ccc2c(c1)-c1[nH]c3ccc([N+](=O)[O-])cc3c1CC(=O)N2
residual activity [1]: 111%
residual activity [6]: 96%
residual activity [7]: 91.8%
residual activity [8]: 69.1%
residual activity [2]: 99.3%
residual activity [9]: 73.1%
residual activity [10]: 9.89%
residual activity [11]: 2.93%
residual activity [12]: 91.4%
residual activity [13]: 84.8%
residual activity [14]: 91.2%
residual activity [15]: 88.5%
residual activity [41]: 95.3%
residual activity [3]: 99.1%
residual activity [16]: 82.2%
residual activity [17]: 37.9%
residual activity [18]: 91.9%
residual activity [19]: 89.1%
residual activity [20]: 103%
residual activity [42]: 92.2%
residual activity [4]: 94.1%
residual activity [21]: 99.2%
residual activity [22]: 30%
residual activity [23]: 87.5%
residual activity [24]: 98.9%
residual activity [25]: 93.1%
residual activity [26]: 96.8%
residual activity [27]: 101%
residual activity [28]: 55.6%
residual activity [29]: 70.9%
residual activity [30]: 78%
residual activity [31]: 99%
residual activity [32]: 93.3%
residual activity [5]: 85.8%
residual activity [33]: 94.6%
residual activity [35]: 73.1%
residual activity [36]: 66%
residual activity [37]: 75.4%
residual activity [38]: 48.1%
residual activity [39]: 96.5%
residual activity [40]: 106%

CCCCc1c(-c2ccc(O)cc2)[nH]c2nccnc12
residual activity [6]: 92.5%
residual activity [7]: 96.9%
residual activity [8]: 97.8%
residual activity [2]: 97%
residual activity [9]: 99.3%
residual activity [10]: 45.2%
residual activity [11]: 22.4%
residual activity [12]: 102%
residual activity [13]: 78.5%
residual activity [14]: 95.9%
residual activity [15]: 96.4%
residual activity [41]: 89%
residual activity [3]: 78%
residual activity [16]: 86%
residual activity [17]: 64.5%
residual activity [18]: 81.8%
residual activity [19]: 91.8%
residual activity [20]: 104%
residual activity [42]: 87.3%
residual activity [4]: 99.6%
residual activity [21]: 86.6%
residual activity [22]: 74.3%
residual activity [23]: 111%
residual activity [25]: 81.9%
residual activity [26]: 92.8%
residual activity [27]: 109%
residual activity [28]: 84.5%
residual activity [29]: 72.8%
residual activity [30]: 90.3%
residual activity [31]: 83.9%
residual activity [32]: 95.1%
residual activity [5]: 87.5%
residual activity [33]: 98.6%
residual activity [34]: 33.5%
residual activity [35]: 70.9%
residual activity [36]: 82.5%
residual activity [37]: 49.9%
residual activity [38]: 43.4%
residual activity [39]: 90.3%
residual activity [40]: 94.4%
